# Reference: patent US9426996B2, “Use of benzoxaboroles as volatile antimicrobial agents on meats, plants, or plant parts” (AgroFresh Inc., priority 2013, dated 2016)
# Assays:
# Botrytis cinerea [1] = experiment: in vivo sublimation bioassay on fruit, 10 mg/L (Example 22); conditions: 10 mg/L sublimed, three day treatment plus three days at 21° C.
# Experimental: (§1) To assess the in vivo activity of volatile antimicrobial Compound A (FIG. 1) in fruit, a volatile bioassay is developed using apple, pear, orange, strawberry, grape and blueberry. Two apples, 2 oranges, 2 pears, 8 strawberries, 16 grapes or 30 blueberries (per replicate, in duplicate) are placed in a clamshell with the stem end facing up for all fruits except for strawberry (stem end facing downwards). A fresh wound is inoculated with 20 μL 1×10^6 per mL Penicillium expansum spore suspension (apple and pear), 20 μL 1×10^6 per mL Penicillium digitatum spore suspension (orange), and 20 μL (strawberry and grape) or 10 μL (blueberry) of 1×10^6 per mL Botrytis cinerea spore suspension. The clamshells are placed inside a 117 L Rubbermaid storage box (Cat #2244) with lids closed. Compound A, dissolved in acetone, is pipetted onto a cotton strip, where the acetone is allowed to evaporate for five minutes, and then introduced into the container by a sublimation device (copper tube heated to 200° C. with fan flow at 0.5 L/min) to achieve a final headspace concentration of 10 mg/L. The containers are then held for three days at 21° C. After treatment, fruits are held for an additional three days at 21° C., then evaluated for disease incidence (mm diameter of browning or water-soaked lesions) and pathogen sporulation (mm diameter) for apple, pear and orange, as well as Botrytis cinerea disease incidence (%) and severity (0 to 4) for strawberry, grape and blueberry, with results summarized in Table 21.
# Penicillium digitatum = experiment: as above; conditions: Orange; 10 mg/L sublimed; three day treatment plus three days at 21° C.
# Experimental: as §1
# Penicillium expansum = experiment: as above; conditions: 10 mg/L sublimed, three day treatment plus three days at 21° C.
# Experimental: as §1
# Fusarium sambucinum = experiment: in vivo volatile assay on potato slices; conditions: 10 mg/L, 21° C. for 3 days
# Experimental: To test the effect of Compound A (FIG. 1) on vegetables, potato, onion and squash were obtained from a local store, and the surface sterilized with 0.825% sodium hypochlorite (NaOCl). A slice of potato or two leaves of onion were placed in a sterile Petri plate, while whole squash were placed in a sterile 10.8-cup SnapWare airtight container (Model #109842). Each slice of potato was inoculated with 20 μL of a 1×10^5 spores/mL Fusarium sambucinum suspension, while onions were inoculated with 20 μL of a 1×10^6 spores/mL Botrytis cinerea suspension. For inoculation of squash, a small core was removed, and a mycelial plug of Phytophthora capsici was inserted and capped with the core. Compound A was diluted in acetone, and added to a 42.5 mm Whatman #1 filter disk (Cat. No. 1001-042) attached to the inner side of the lid at a rate to achieve a final headspace concentration of 10 mg/L. The acetone was permitted to evaporate for 5 minutes before parafilm sealing the plates or closing the airtight containers. The vegetables were incubated at 21° C. for 3 days, and evaluated for mycelial growth, dry rot, and water-soaked appearance (mm diameter) with results summarized in Table 13.
# Botrytis cinerea [2] = experiment: in vitro spore germination and mycelial growth after transfer; assay type: cell-based; conditions: for Mycelial growth after transfer (%): 3 d after transfer to clean PDA
# Experimental: In order to assess the activity of Compound A as a volatile fungicide, an in vitro assay is developed to evaluate spore germination. 3.5-cm Petri plates are filled with 2 mL of water agar. After cooling, 1 μL of 1×10^5 per mL Botrytis cinerea spore suspension is spot-pipetted into the center of the plate. Plates are inoculated immediately prior to volatile fungicide treatment. A Whatman #1 filter disk (Cat. No. 1001-0155) is placed, in duplicate, on the underside of a plate lid. […] After 24 hours of storage at 23° C., 100 spores are counted for percent germination, where germination is defined as a germ tube that has extended a distance greater than the length of the spore. After counting, treatment is removed, and the plates are resealed. After an additional 24 hours, 100 spores are again counted. Plugs are then transferred to a clean plate containing full-strength PDA and allowed to incubate at 23° C. for an additional three days.
# Alternaria alternata = experiment: combination treatment with 1-MCP on broccoli; assay type: in vivo; parameters: scale not given here; conditions: 21° C.
# Experimental: To evaluate a combination treatment of Compound A with 1-methylcyclopropene (1-MCP), an in vivo experiment is performed on broccoli.
# Broccoli flowers are inoculated with 1×10^6 spores/mL of Alternaria alternata and then placed in a 117 L Rubbermaid storage box (Cat #2244) with two small fans placed in opposite ends of the container. A 500 ppb v/v 1-MCP treatment is applied (AgroFresh, Springhouse, Pa.) for 24 hours at 1° C. After completion of the 1-MCP treatment, broccoli florets are removed and placed in a 10.8-cup SnapWare airtight container (Model #109842). Compound A powder is applied in a dose dependent manner to achieve a final headspace concentration of 2 or 0.4 mg/L with a sublimation device (copper tube heated to 200° C. with fan flow at 0.5 L/min), with the end of the tube penetrating through a ½ inch side port in the container that is sealed immediately after the application. The florets are incubated for five days at 10° C. or three days at 21° C., then evaluated for an additional five days at 21° C. for disease incidence and severity.
smiles,measurement,setting,value
OB1OCc2cc(F)ccc21 [Compound A],Incidence (%),Botrytis cinerea [1]; Blueberry,5%
same,Severity (0-4),Botrytis cinerea [1]; Blueberry,0.03
same,Incidence (%),Botrytis cinerea [1]; Grape,26.7%
same,Severity (0-4),Botrytis cinerea [1]; Grape,0.1
same,Incidence (%),Botrytis cinerea [1]; Strawberry,18.8%
same,Severity (0-4),Botrytis cinerea [1]; Strawberry,0.09
same,Sporulation (mm),Penicillium digitatum,8.55 mm
same,Water soaked lesion,Penicillium digitatum,3.04 mm
same,Browning (mm),Penicillium expansum; Apple,5.4 mm
same,Sporulation (mm),Penicillium expansum; Apple,0 mm
same,Browning (mm),Penicillium expansum; Pear,2.7 mm
same,Sporulation (mm),Penicillium expansum; Pear,0 mm
same,Dry rot,Fusarium sambucinum,0 mm
same,Mycelial growth,Fusarium sambucinum,0 mm
same,Spore germination (%),"Botrytis cinerea [2]; 0.07 mg/L, 24 h + 24 h after treatment removal",10.0%
same,Spore germination (%),"Botrytis cinerea [2]; 0.07 mg/L, 24 h treatment",0.0%
same,Mycelial growth after transfer (%),Botrytis cinerea [2]; 0.07 mg/L,60.3%
same,Spore germination (%),"Botrytis cinerea [2]; 0.14 mg/L, 24 h + 24 h after treatment removal",0.0%
same,Spore germination (%),"Botrytis cinerea [2]; 0.14 mg/L, 24 h treatment",0.0%
same,Mycelial growth after transfer (%),Botrytis cinerea [2]; 0.14 mg/L,53.8%
same,Spore germination (%),"Botrytis cinerea [2]; 0.28 mg/L, 24 h + 24 h after treatment removal",0.0%
same,Spore germination (%),"Botrytis cinerea [2]; 0.28 mg/L, 24 h treatment",0.0%
same,Mycelial growth after transfer (%),Botrytis cinerea [2]; 0.28 mg/L,51.3%
same,Spore germination (%),"Botrytis cinerea [2]; 0.56 mg/L, 24 h + 24 h after treatment removal",0.0%
same,Spore germination (%),"Botrytis cinerea [2]; 0.56 mg/L, 24 h treatment",0.0%
same,Mycelial growth after transfer (%),Botrytis cinerea [2]; 0.56 mg/L,43.3%
same,Spore germination (%),"Botrytis cinerea [2]; 71.4 mg/L, 24 h + 24 h after treatment removal",0.0%
same,Spore germination (%),"Botrytis cinerea [2]; 71.4 mg/L, 24 h treatment",0.0%
same,Mycelial growth after transfer (%),Botrytis cinerea [2]; 71.4 mg/L,0.0%
same,Spore germination (%),"Botrytis cinerea [2]; 142.9 mg/L, 24 h + 24 h after treatment removal",0.0%
same,Spore germination (%),"Botrytis cinerea [2]; 142.9 mg/L, 24 h treatment",0.0%
same,Mycelial growth after transfer (%),Botrytis cinerea [2]; 142.9 mg/L,0.0%
same,fungicidal or fungistatic effect,Botrytis cinerea [2]; treated spores after the compound has been removed,fungicidal effect
same,Color Score,Alternaria alternata; 0.4 mg/L,1.32
same,Severity,Alternaria alternata; 0.4 mg/L,0.29
same,Color Score,Alternaria alternata; 2 mg/L,1.89
same,Severity,Alternaria alternata; 2 mg/L,0.07
